Experiments:
Type in all cases: in vivo
[1] = tested on: Rice (variety: Nipponbare); test: Test Example 3: promotion of root growth by hydroponics of rice, 0.1 ppm; conditions: hydroponic solution containing the test compound at 0.1 ppm, average of 4 or 5 individuals
Procedure: (§1) Test for Evaluating Promotion of Root Growth by Hydroponics of Rice
(§2) Rice (variety: Nipponbare)
A DMSO solution, which contained one of the compounds 2, 6, 7, 16, 20, 33, 34, 36, 37, 38, 40, 41, 43, 44, 45, 46, 47, 48, 50, 51, 52, 53, 54, 55, 56, 61, 64, 67, 68, 71, 72, 73, 74, 75, 76, 79, 80, 81 and 83 of the present invention at a concentration of 1,000 ppm, was added to Hoagland hydroponic solution (Hoagland and Arnon, California Agricultural Experiment Station 1950 Circular 347 pp. 34) of ¼-fold concentration at a volume ratio of 1/10,000. In this manner, hydroponic solutions containing one of the compounds 2, 6, 7, 16, 20, 33, 34, 36, 37, 38, 40, 41, 43, 44, 45, 46, 47, 48, 50, 51, 52, 53, 54, 55, 56, 61, 64, 67, 68, 71, 72, 73, 74, 75, 76, 79, 80, 81 and 83 of the present invention at 0.1 ppm were prepared respectively. As an untreated control plot, a hydroponic solution obtained by adding DMSO to Hoagland hydroponic solution of ¼-fold concentration at a volume ratio of 1/10,000 was used.
Rice seeds were soaked in a 1% aqueous sodium hypochlorite solution for 10 minutes, then soaked in a 70% ethanol solution for surface sterilization, and then washed with distilled water. The sterilized seeds were soaked in a hydroponic solution containing the test compound described above at 0.1 ppm and incubated in a dark place for 3 days at 28° C. to perform treatment for hastening germination.
(§3) Thereafter, 30 ml of hydroponic solution containing the test compound at 0.1 ppm was dispensed in a plastic tube (diameter of 20 mm×height of 113 mm) of which the side was covered with cardboard to block light. A float prepared using a styrene board and vinyl mesh was floated, and the rice seeds that had undergone the treatment for hastening germination were placed on the float on the surface of the hydroponic solution. The seeds were cultivated for 3 days at 26° C., an illuminance of 4,000 lux of the top surface of the tube, a humidity of 50%, and a day length of 16 hours.
The nursery plants of rice obtained after culturing were measured in terms of the length of seminal root by using WinRHIZO system (manufactured by Regent Instruments Inc). For each test plot, an average of the measured values of the seminal root of 4 or 5 individuals was determined.

[2] = tested on: Corn seeds (variety: Pioneer 120 31P41); test: Test Example 14: growth promotion under low-temperature stress by soil drench treatment of corn; conditions: soil drench 20 ml, low-temperature stress 5 days at 2.5° C., health score 0-5, average of 4 individuals; for change in vivo at 3 ppm: concentration tested 3 ppm
Procedure: Test for Evaluating Growth Promotion Under Low-Temperature Stress by Soil Drench Treatment of Corn
Corn seeds (variety: Pioneer 120 31P41) were seeded in a culture soil (Aisai) in a plastic pot (φ55 mm×height of 58 mm), and cultivated for 7 days at 20-25° C., an illuminance of about 5,000 lux, and a day length of 16 hours.
A DMSO solution, which contained one of the compounds 1 to 9, 16, 17, 20, 23, 24, 28 to 32, 34, 45, 48, 50, 82 and 85 of the present invention at a concentration of 1,000-fold concentration of each test concentration, was prepared, and then diluted with distilled water to obtain each test solution. After that, 20 ml of the obtained test solution was used to perform soil drench treatment on the foot of the test plants. The test plants were cultivated for 2 days under the conditions of a temperature of 27° C., a humidity of 40-80%, an illuminance of about 5,000 lux, and a day length of 16 hours. This was used as a test plot treated with the compound. A plot having undergone the soil drench treatment with 20 ml of a 0.1% DMSO aqueous solution instead of the above DMSO solution containing the compound was used as an untreated control plot.
The plants having undergone the soil drench treatment were cultivated for 5 days under the conditions of a temperature of 2.5° C., a humidity of 40-80%, an illuminance of about 5,000 lux, and a day length of 16 hours, thereby exposing to low-temperature stress. After the exposure to the low-temperature stress, the plants were cultivated for 4 days under the conditions of a temperature of 27° C., a humidity of 40-80%, an illuminance of about 5,000 lux, and a day length of 16 hours.
After the cultivation, the health of each plant was scored according to the following evaluation index.
5: 4 or more leaves in which ⅔ or more of the area was healthy
4: 3 leaves in which ⅔ or more of the area was healthy
3: 2 leaves in which ⅔ or more of the area was healthy
2: 1 leaf in which ⅔ or more of the area was healthy
1: No leaf in which ⅔ or more of the area was healthy
An average of the scores of the health of 4 individuals was determined.

[3] = tested on: Rice (variety: Nipponbare); test: Test Example 1: promotion of root growth by hydroponics of rice, 10 ppm; conditions: Oryza sativa, hydroponic solution containing the test compound at 10 ppm, average of 4 or 5 individuals, read-out: Relative value of length of seminal root (%-untreated control plot)
How it was run: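 Surface-sterilised seeds germinated 3 days in the dark at 28° C in hydroponic solution with compound at 10 ppm, then grown 3 days hydroponically with compound at 10 ppm (26° C, 4,000 lux, 16 h day, 50% humidity). Seminal root length measured by image analysis, averaged over 4 or 5 plants per plot.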

[4] = tested on: Nicotiana benthamiana; test: Test Example 4: growth promotion under low-temperature stress by hydroponics of Nicotiana benthamiana, 10 ppm; conditions: 10 ppm in medium, low-temperature stress 7 days at 1.5±1.0° C., green leaf area 3 days later, equation (1)
Procedure: Test for Evaluating Growth Promotion Under Low-Temperature Stress by Hydroponics of Nicotiana benthamiana
A DMSO solution, which contained one of the compounds 1, 8, 9, 13, 18, 19, 22, 23, 29, 32, 33, 34, 39, 40, 41, 43, 44, 51, 53, 54, 55, 56, 58, 60, 62, 63, 64, 65, 67, 69, 71, 73, 74, 75, 77, 79, 82, 83 and 86 of the present invention at a concentration of 10,000 ppm, was prepared. The DMSO solution of the compound of the present invention was added at a volume ratio of 1/1,000 to the Murashige•Scoog medium of a ½-fold concentration (a medium containing 2.3 g of mixed salts for the Murashige•Scoog medium (manufactured by Wako Pure Chemical Industries, Ltd.), 200 mg of Myo-inositol (manufactured by Sigma-Aldrich Co. LLC.), 2 mg of nicotinic acid (manufactured by Wako Pure Chemical Industries, Ltd.), 2 mg of pyridoxine hydrochloride (manufactured by Wako Pure Chemical Industries, Ltd.), 20 mg of thiamine hydrochloride (manufactured by Wako Pure Chemical Industries, Ltd.), 20 g of sucrose (manufactured by Wako Pure Chemical Industries, Ltd.), and 1 g of MES (manufactured by DOJINDO LABORATORIES) per 1 L of water and having pH adjusted to 5.8), thereby preparing a medium containing the compound of the present invention at a concentration of 10 ppm.
Seeds of Nicotiana benthamiana were seeded in the 5 μL of the medium and cultured overnight at 22° C. Thereafter, 45 μL of the medium containing the compound of the present invention at a concentration of 10 ppm was added thereto, and the seeds are cultivated for 7 days at 22° C., an illuminance of 4,000 lux, and a day length of 16 hours, and the nursery plants raised from the Nicotiana benthamiana were treated with the compound. Moreover, instead of the above medium, a test plot, which was obtained by performing the same treatment by using a medium prepared by adding DMSO to the Murashige•Scoog medium of ½-fold concentration at a volume ratio of 1/1,000, was used as a control plot not treated with the compound.
The nursery plants of the Nicotiana benthamiana treated with the compound were subjected to low-temperature treatment by being cultivated for 7 days at 1.5±1.0° C., an illuminance of 2,000 lux, and a day length of 16 hours.
The nursery plants of the Nicotiana benthamiana having undergone the low-temperature stress treatment were cultivated for 3 days at 22° C., an illuminance of 4,000 lux, and a day length of 16 hours. Thereafter, the area of green leaf was quantified by Scanalyzer HTS (manufactured by LemnaTec GmbH). Moreover, the value of the control plot not treated with the compound that had not yet been subjected to the low-temperature stress treatment was measured in the same manner. A value of a relative leaf area was calculated based on the following equation (1), and if the value of a relative leaf area was 5 or greater, the compound was evaluated to have a mitigating effect. As a result of the evaluation, it was confirmed that when the plant was treated with one of the compounds 1, 8, 9, 13, 18, 19, 22, 23, 29, 32, 33, 34, 39, 40, 41, 43, 44, 51, 53, 54, 55, 56, 58, 60, 62, 63, 64, 65, 67, 69, 71, 73, 74, 75, 77, 79, 82, 83 and 86 of the present invention at 10 ppm, the value of a relative leaf area was 5 or greater, compared to the area of green leaf of the control plot not treated with compound. Accordingly, it was confirmed that the treatment using the compound of the present invention brings about a growth promotion effect.
Relative leaf area=100*(a green area of a plot treated with the compound of the present invention−a green area of a control plot not treated with the compound of the present invention)/(a green area of a control plot not treated with the compound of the present invention that has not yet been subjected to low-temperature stress treatment−a green area of a control plot not treated with the compound of the present invention) Equation (1): […]

[5] = tested on: Rice (variety: Nipponbare); test: Test Example 2: promotion of root growth by hydroponics of rice, 1 ppm; conditions: hydroponic solution containing the test compound at 1 ppm, average of 4 or 5 individuals
Procedure: as §1, §2
A DMSO solution, which contained one of the compounds 1, 3, 11, 12, 14, 15, 17, 21, 28, 30, 33, 34, 35, 36, 37, 38, 40, 41, 43, 44, 45, 46, 47, 49, 50, 51, 52, 53, 54, 55, 56, 61, 62, 63, 65, 67, 68, 69, 70, 73, 74, 75, 76, 77, 80, 82, 83, 85 and 86 of the present invention at a concentration of 10,000 ppm, was added to Hoagland hydroponic solution (Hoagland and Arnon, California Agricultural Experiment Station 1950 Circular 347 pp. 34) of ¼-fold concentration at a volume ratio of 1/10,000. In this manner, hydroponic solutions containing one of the compounds 1, 3, 11, 12, 14, 15, 17, 21, 28, 30, 33, 34, 35, 36, 37, 38, 40, 41, 43, 44, 45, 46, 47, 49, 50, 51, 52, 53, 54, 55, 56, 61, 62, 63, 65, 67, 68, 69, 70, 73, 74, 75, 76, 77, 80, 82, 83, 85 and 86 of the present invention at 1 ppm were prepared respectively. As an untreated control plot, a hydroponic solution obtained by adding DMSO to Hoagland hydroponic solution of ¼-fold concentration at a volume ratio of 1/10,000 was used. Rice seeds were soaked in a 1% aqueous sodium hypochlorite solution for 10 minutes, then soaked in a 70% ethanol solution for surface sterilization, and then washed with distilled water. The sterilized seeds were soaked in a hydroponic solution containing the test compound described above at 1 ppm and incubated in a dark place for 3 days at 28° C. to perform treatment for hastening germination.
as §3, with “1” for “0.1”
The nursery plants of rice obtained after cultivation were measured in terms of the length of seminal root by using WinRHIZO system (manufactured by Regent Instruments Inc). For each test plot, an average of the measured values of the seminal root of 4 or 5 individuals was determined.

[6] = Zea mays, 120 h, read-out: Relative value of score (%- untreated control plot)

## COC(=O)c1cc2ccc(C(F)(F)F)cc2o1 [Compound 48]
[1]; Oryza sativa, read-out: Relative value of length of seminal root (%-untreated control plot)
  change in vivo at 0.1 ppm: > 5%
[2]; Zea mays, 120 h, concentration tested 10 ppm, read-out: Relative value of score (%- untreated control plot)
  change in vivo at 10 ppm: > 5%

## COC(=O)c1cc2cc(C(F)(F)F)ccc2[nH]1 [Compound 8, methyl 5-trifluoromethylindole-2-carboxylate]
[3]
  change in vivo at 10 ppm: > 5%
[4]
  relative leaf area at 10 ppm: ≥ 5%
[2]; [6]
  change in vivo at 3 ppm: > 5%

## O=C(O)c1nc2cccnc2[nH]1 [Compound 28]
[5]
  Relative value of length of seminal root (%-untreated control plot): >5%
[2]; concentration tested 10 ppm
  Relative value of score (%- untreated control plot): >5%

## COC(=O)c1nc2cc(C(F)(F)F)ccc2s1 [Compound 29, methyl 5-trifluoromethylbenzothiazole-2-carboxylate]
[3]
  change in vivo at 10 ppm: > 5%
[4]
  relative leaf area at 10 ppm: ≥ 5%
[2]; [6]
  change in vivo at 3 ppm: > 5%

## COC(=O)c1cc2c(C(F)(F)F)cccc2[nH]1 [Compound 6]
[1]
  Relative value of length of seminal root (%-untreated control plot): >5%
[2]; concentration tested 10 ppm
  Relative value of score (%- untreated control plot): >5%

## COC(=O)c1nc2ccccc2s1 [Compound 30]
[5]
  Relative value of length of seminal root (%-untreated control plot): >5%
[2]; concentration tested 10 ppm
  Relative value of score (%- untreated control plot): >5%

From US20150289512A1, “METHOD FOR PROMOTING PLANT GROWTH” (SUMITOMO CHEMICAL COMPANY, LIMITED, priority 2012, published 2015)
